Test results reported in article PMC9501377, “New Diarylamine KV10.1 Inhibitors and Their Anticancer Potential” (Pharmaceutics, 2022).
Several values for one entry are separate records, joined by “and”; a condition that tells them apart may be missing. Identical values can stand only once.

Biological target: T1, KV10.1 (Homo sapiens, UniProt O95259)
T1 construct: expressed in transfected cells; host or cells: Xenopus laevis oocytes (cRNA injection)
T1 sequence (O95259 1-989): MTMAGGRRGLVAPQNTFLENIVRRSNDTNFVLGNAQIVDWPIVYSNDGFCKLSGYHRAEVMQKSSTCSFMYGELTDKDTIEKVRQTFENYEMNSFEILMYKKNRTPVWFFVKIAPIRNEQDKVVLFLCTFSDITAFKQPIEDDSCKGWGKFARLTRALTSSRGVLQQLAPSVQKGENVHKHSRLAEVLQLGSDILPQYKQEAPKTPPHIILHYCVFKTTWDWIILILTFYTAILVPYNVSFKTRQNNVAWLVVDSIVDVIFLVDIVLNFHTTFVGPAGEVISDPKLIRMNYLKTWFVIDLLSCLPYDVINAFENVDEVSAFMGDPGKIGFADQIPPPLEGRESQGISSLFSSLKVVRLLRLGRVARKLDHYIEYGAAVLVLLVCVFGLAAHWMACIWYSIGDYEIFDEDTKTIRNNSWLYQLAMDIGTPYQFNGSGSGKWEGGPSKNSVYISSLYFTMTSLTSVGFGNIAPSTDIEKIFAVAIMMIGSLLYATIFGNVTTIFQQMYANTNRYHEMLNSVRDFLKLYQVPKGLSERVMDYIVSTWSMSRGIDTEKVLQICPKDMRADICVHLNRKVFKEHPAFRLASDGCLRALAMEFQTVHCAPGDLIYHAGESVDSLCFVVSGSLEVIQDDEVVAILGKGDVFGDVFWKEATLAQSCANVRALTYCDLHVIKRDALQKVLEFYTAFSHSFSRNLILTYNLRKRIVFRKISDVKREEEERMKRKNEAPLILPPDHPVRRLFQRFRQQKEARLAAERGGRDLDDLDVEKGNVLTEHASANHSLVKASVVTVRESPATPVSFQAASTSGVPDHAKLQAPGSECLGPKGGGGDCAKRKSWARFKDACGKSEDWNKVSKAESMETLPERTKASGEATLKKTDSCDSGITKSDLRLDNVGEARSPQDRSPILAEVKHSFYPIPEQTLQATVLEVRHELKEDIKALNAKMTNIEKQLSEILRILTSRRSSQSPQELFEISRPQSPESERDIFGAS
Assay: Two-electrode voltage-clamp on Xenopus laevis oocytes expressing KV10.1
Type: cell-based
Settings: voltage-clamped
Source text: Stage V–VI oocytes were isolated by partial ovariectomy from Xenopus laevis frogs (African clawed frog). Mature female frogs were purchased from CRB Xénopes (Rennes, France) and were housed in the Aquatic Facility (KU Leuven) in compliance with the regulations of the European Union (EU) concerning the welfare of laboratory animals as declared in Directive 2010/63/EU. The use of Xenopus laevis was approved by the Animal Ethics Committee of the KU Leuven (Project nr. P186/2019). After anesthetising the frogs by a 15 min submersion in 0.1% tricaine methanesulphonate (pH 7.0), the oocytes were collected. The isolated oocytes were then washed with a 1.5 mg/mL collagenase solution for 2 h to remove the follicle layer.
Ion channels (KV10.1 and hERG) were expressed in Xenopus laevis oocytes, by linearisation of the plasmids and subsequent in vitro transcription using a commercial T7 or SP6 mMESSAGE mMACHINE transcription kit (Ambion, Carlsbad, CA, USA). Defolliculated Xenopus oocytes were then injected with 20–50 nL of the cRNA at a concentration of 1 ng/nL using a micro-injector (Drummond Scientific1, Broomall, PA, USA). The oocytes were incubated in a solution containing (in mM): NaCl, 96; KCl, 2; CaCl2, 1.8; MgCl2, 2 and HEPES, 5 (pH 7.4), supplemented with 50 mg/L gentamycin sulphate and […]. After ex vivo translation, the ion channels are correctly inserted in the cell membrane of the oocytes.
Two-electrode voltage-clamp recordings were performed at room temperature (18–22 °C) using a Geneclamp 500 amplifier (Molecular Devices, San Jose, CA, USA) controlled by a pClamp data acquisition system (Axon Instruments1, Union City, CA, USA) and using an integrated digital TEVC amplifier controlled by HiClamp, an automated Voltage-Clamp Screening System (Multi Channel Systems MCS GmbH, Reutlingen, Germany). Whole-cell currents from oocytes were recorded 1–7 days after injection. The bath solution composition was ND96 (in mM): NaCl, 96; KCl, 2; CaCl2, 1.8; MgCl2, 2 and HEPES, 5 (pH 7.5). Voltage and current electrodes were filled with a 3 M solution of KCl in H2O. Resistances of both electrodes were kept between 0.5 and 1.5 MΩ. The elicited Kv10.1 and hERG currents were filtered at 0.5 kHz and sampled at 2 kHz using a four-pole low-pass Bessel filter. Leak subtraction was performed using a p/4 protocol. Starting from a holding potential of −90 mV, currents for Kv10.1 were evoked by 1 s depolarizing pulses to 0 mV and currents for hERG were evoked by 2.5 s depolarizing prepulses to +40 mV, followed by hyperpolarizing pulses to −120 mV for 2.5 s. The concentration dependency of all compounds was assessed by measuring the current inhibition in the presence of increasing compound concentrations. To this end, a stock solution of the compounds was prepared in 100% DMSO for the sake of solubility. From this stock solution, adequate dilutions with a maximum of 0.5% DMSO were made for testing. The data of the concentration–response curves were fitted with the Hill equation: y = 100/{1 + (IC50/[compound])^h}, where y is the amplitude of the compound- induced effect, IC50 is the compound concentration at half-maximal efficacy, (compound) is the compound concentration, and h is the Hill coefficient.
All electrophysiological data are presented as means ± SEM of n ≥ 3 independent experiments unless otherwise indicated. Oocyte data were analysed using pClamp Clampfit 10.4 (Molecular Devices, Downingtown, PA, USA) and OriginPro 9 (Originlab, Northampton, MA, USA) or GraphPad Prism 8 software (GraphPad Software, Inc., San Diego, CA, USA). Patch-clamp data analysis was performed using FitMaster (HEKA Electronics), IgorPro (Wavemetrics, Inc., Lake Oswego, OR, USA) and GraphPad Prism 9 (GraphPad Software, Inc., San Diego, CA, USA). The Dunnett test and one-way ANOVA were performed to calculate the significance of the induced inhibition compared to the control (p < 0.05).

Row | Compound | inhibition at 10 µM (10 μM) [%] | IC50 | % of Kv10.1 inhibition at 10 μM (Xenopus laevis oocytes) (10 μM)
1 | O=[N+]([O-])c1cc(C(F)(F)F)ccc1Nc1ccc(OCc2ccccc2)cc1 [Compound 14, N-(4-(Benzyloxy)phenyl)-2-nitro-4-(trifluoromethyl)aniline] | -1.18 | – | –
2 | O=[N+]([O-])c1cc(C(F)(F)F)ccc1Oc1ccc(OCC(O)CN2CCOCC2)cc1 (stereo not shown) [Compound 5b, 1-Morpholino-3-(4-(2-nitro-4-(trifluoromethyl)phenoxy)phenoxy)propan-2-ol] | 24.9 | – | –
3 | CN(C)CC(O)COc1ccc(Oc2ccc(C(F)(F)F)cc2[N+](=O)[O-])cc1 (stereo not shown) [Compound 6a, 1-(Dimethylamino)-3-(4-(2-nitro-4-(trifluoromethyl)phenoxy)phenoxy)propan-2-ol] | 23.7 | – | –
4 | COC(=O)c1ccccc1Oc1ccc(OCC(O)CN2CCOCC2)cc1 (stereo not shown) [Compound 5a, Methyl 2-(4-(2-hydroxy-3-morpholinopropoxy)phenoxy)benzoate] | -4.54 | – | –
5 | CN(C)CC(O)COc1ccc(Nc2ccc([N+](=O)[O-])cc2[N+](=O)[O-])cc1 (stereo not shown) [Compound 6d, 1-(Dimethylamino)-3-(4-((2,4-dinitrophenyl)amino)phenoxy)propan-2-ol] | 44.1 | – | –
6 | COC(=O)c1ccccc1Nc1ccc(OCC(O)CN2CCOCC2)cc1 (stereo not shown) [Compound 5d, Methyl 2-((4-(2-hydroxy-3-morpholinopropoxy)phenyl)amino)benzoate] | -2.11 | – | –
7 | Methyl 2-((4-(2-hydroxy-3-morpholinopropoxy)phenyl)amino)benzoate [Compound 5e] | – | – | -2.17% ± 3.06
8 | CN(C)CC(O)COc1ccc(NC(=O)c2ccc(C(F)(F)F)cc2[N+](=O)[O-])cc1 (stereo not shown) [Compound 6b, N-(4-(3-(Dimethylamino)-2-hydroxypropoxy)phenyl)-2-nitro-4-(trifluoromethyl)benzamide] | -0.41 | – | –
9 | O=[N+]([O-])c1cc(C(F)(F)F)ccc1Nc1ccc(OCCN2CCOCC2)cc1 [Compound 13, N-(4-(2-Morpholinoethoxy)phenyl)-2-nitro-4-(trifluoromethyl)aniline] | 22.6 | – | –
10 | COC(=O)c1cc(C(F)(F)F)ccc1Nc1ccc(OCC(O)CN(C)C)cc1 (stereo not shown) [Compound 6c, Methyl 2-((4-(3-(dimethylamino)-2-hydroxypropoxy)phenyl)amino)-5-(trifluoromethyl)benzoate] | 9.91 | – | –
11 | O=[N+]([O-])c1cc(C(F)(F)F)ccc1Nc1ccc(OCCN2CCCCC2)cc1 [Compound 20, 2-Nitro-N-(4-(2-(piperidin-1-yl)ethoxy)phenyl)-4-(trifluoromethyl)aniline] | 36.3 | 12.93 ± 0.04 µM | –
12 | O=[N+]([O-])c1cc(C(F)(F)F)ccc1Nc1ccc(OCCN2CCCC2)cc1 [Compound 19, 2-Nitro-N-(4-(2-(pyrrolidin-1-yl)ethoxy)phenyl)-4-(trifluoromethyl)aniline] | 55.7 | – | –
13 | O=[N+]([O-])c1cc(C(F)(F)F)ccc1Nc1ccc(OCCN2CCCCCC2)cc1 [Compound 21, N-(4-(2-(Azepan-1-yl)ethoxy)phenyl)-2-nitro-4-(trifluoromethyl)aniline] | 43.4 | 13.3 ± 1.89 µM | –
14 | O=C(Nc1ccc(OCC(O)CN2CCOCC2)cc1)c1ccc(C(F)(F)F)cc1[N+](=O)[O-] (stereo not shown) [Compound 5c, N-(4-(2-Hydroxy-3-morpholinopropoxy)phenyl)-2-nitro-4-(trifluoromethyl)benzamide] | -0.66 | – | –
15 | CN(C)CC(O)COc1ccc(Nc2ccc(C(F)(F)F)cc2C(=O)O)cc1 (stereo not shown) [Compound 10b, 2-((4-(3-(Dimethylamino)-2-hydroxypropoxy)phenyl)amino)-5-(trifluoromethyl)benzoic acid] | 15.7 | – | –
16 | O=[N+]([O-])c1ccc(Nc2ccc(OCC(O)CN3CCOCC3)cc2)c([N+](=O)[O-])c1 (stereo not shown) [Compound 5f, 1-(4-((2,4-Dinitrophenyl)amino)phenoxy)-3-morpholinopropan-2-ol] | 41.3 | – | –

Second part, the compound after the results:

Row | inhibition at 10 µM (10 μM) [%] | IC50 | % of Kv10.1 inhibition at 10 μM (Xenopus laevis oocytes) (10 μM) | Compound
17 | 58.2 | 19 ± 2.85 µM | – | CN(C)CCOc1c(Cl)cc(Nc2ccc(C(F)(F)F)cc2[N+](=O)[O-])cc1Cl [Compound 18c, 3,5-Dichloro-4-(2-(dimethylamino)ethoxy)-N-(2-nitro-4-(trifluoromethyl)phenyl)aniline]
18 | 19.5 | – | – | CCN(CC)CCOc1c(Br)cc(Nc2ccc(C(F)(F)F)cc2[N+](=O)[O-])cc1Br [Compound 17b, 3,5-Dibromo-4-(2-(diethylamino)ethoxy)-N-(2-nitro-4-(trifluoromethyl)phenyl)aniline]
19 | 9.21 | – | – | CCN(CC)CCOc1c(Cl)cc(Nc2ccc(C(F)(F)F)cc2[N+](=O)[O-])cc1Cl [Compound 17c, 3,5-Dichloro-4-(2-(diethylamino)ethoxy)-N-(2-nitro-4-(trifluoromethyl)phenyl)aniline]
20 | 41.7 | 11.6 ± 0.35 µM | – | CN(C)CCOc1ccc(Nc2ccc(C(F)(F)F)cc2[N+](=O)[O-])cc1 [Compound 18a, N-(4-(2-(Dimethylamino)ethoxy)phenyl)-2-nitro-4-(trifluoromethyl)aniline]
21 | 26 | – | – | CN(C)CCOc1c(Br)cc(Nc2ccc(C(F)(F)F)cc2[N+](=O)[O-])cc1Br [Compound 18b, 3,5-Dibromo-4-(2-(dimethylamino)ethoxy)-N-(2-nitro-4-(trifluoromethyl)phenyl)aniline]
22 | 63.5 | 3.58 µM and 3.6 µM | – | CCN(CC)CCOc1ccc(Nc2ccc(C(F)(F)F)cc2[N+](=O)[O-])cc1 [Compound 17a, N-(4-(2-(Diethylamino)ethoxy)phenyl)-2-nitro-4-(trifluoromethyl)aniline]
23 | 0 | – | – | O=C(Cc1ccc(Cl)c(Cl)c1)NC1CCN(CC(O)COc2ccc(Nc3ccc(C(F)(F)F)cc3[N+](=O)[O-])cc2)CC1 (stereo not shown) [Compound 16d, 2-(3,4-Dichlorophenyl)-N-(1-(2-hydroxy-3-(4-((2-nitro-4-(trifluoromethyl)phenyl)amino)phenoxy)propyl)piperidin-4-yl)acetamide]
